In patent US8183234B2, “Tricyclic guanidine derivatives as sodium-proton exchange inhibitors” (Piramal Life Sciences Limited, priority 2004, dated 2012) one finds IC50 and melting point data, which are given here for 21 compounds.

Structures are written as SMILES. Structures can show the parent of a compound that is named as a salt.

T1 sequence (P19634 whole entry, canonical isoform): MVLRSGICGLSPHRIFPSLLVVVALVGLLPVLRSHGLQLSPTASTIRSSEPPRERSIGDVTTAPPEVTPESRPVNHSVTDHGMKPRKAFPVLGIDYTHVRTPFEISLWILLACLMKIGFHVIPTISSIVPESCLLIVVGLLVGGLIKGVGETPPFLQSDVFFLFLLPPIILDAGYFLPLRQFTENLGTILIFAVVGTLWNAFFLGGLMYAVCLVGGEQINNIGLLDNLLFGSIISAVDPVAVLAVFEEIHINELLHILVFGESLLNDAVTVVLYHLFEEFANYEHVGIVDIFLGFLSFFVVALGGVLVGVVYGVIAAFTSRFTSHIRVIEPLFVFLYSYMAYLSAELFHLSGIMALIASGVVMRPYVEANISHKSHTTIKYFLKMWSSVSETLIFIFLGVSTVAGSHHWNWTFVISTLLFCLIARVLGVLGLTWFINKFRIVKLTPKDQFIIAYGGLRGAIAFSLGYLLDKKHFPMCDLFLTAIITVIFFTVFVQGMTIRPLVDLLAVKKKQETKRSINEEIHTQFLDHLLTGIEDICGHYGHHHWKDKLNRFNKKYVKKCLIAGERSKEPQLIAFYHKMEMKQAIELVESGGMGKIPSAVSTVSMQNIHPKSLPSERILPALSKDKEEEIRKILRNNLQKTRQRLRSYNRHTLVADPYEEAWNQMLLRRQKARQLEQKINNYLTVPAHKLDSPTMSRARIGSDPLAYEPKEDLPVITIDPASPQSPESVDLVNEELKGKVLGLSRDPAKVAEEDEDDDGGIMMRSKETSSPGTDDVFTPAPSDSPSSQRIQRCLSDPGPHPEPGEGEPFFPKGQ

One data set addresses T1, NHE-1 (Homo sapiens, UniProt P19634).
T1 construct: NHE-1 isoform which is predominantly present in human platelets; endogenous in cells; host or cells: human platelets (platelet rich plasma from blood of healthy volunteers)
Nature of the data set: Primary screening assay in human platelets (acidified human platelet swelling assay). The settings on record: concentration required to inhibit 50% of NHE-1 activity in isolated human platelets; mean of three readings, PRP from three donors. It is filed as cell-based. On the procedure: Experiments on inhibition of NHE in human platelets are based on those published in (Cardiovasc. Res. 29: 260-268, (1995), J. Med. Chem. 41, 3736-3747, (1998)) Blood (150 mL) collected in a siliconized glass bottle from healthy volunteers was treated with aqueous acid citrate dextrose (ACD) solution (25 mL) [composition: citric acid (38 mM/L), glucose (136 mM/L) and trisodium citrate (75 mM/L)] and immediately centrifuged at 200 g for 20 min. The platelet rich plasma (PRP) was separated and a platelet count carried out using a Beckman Coulter A^c T® cell counter. The cell count was adjusted to 3×10^8 platelets/mL using platelet free plasma.
Activation of Na^+/H^+ exchanger by intracellular acidification: 150 μL of PRP was added to 750 μL of propionate buffer [composition: KCl (5 mM/L), CaCl2 (1 mM/L), MgCl2 (1 mM/L), glucose (10 mM/L), HEPES (20 mM/L), sodium propionate (140 mM/L)] of pH 6.6, in a cuvette. Optical density was recorded at 630 nm using a Shimadzu spectrophotometer (UV 1601). The micromolar concentrations of a few representative compounds required to inhibit 50% of NHE-1 activity (IC50), in isolated human platelets (acidified human platelet swelling assay) is shown in Table 2. IC50 values are the mean of three experimental readings using PRP isolated from the blood of three different donors.
`Cc1cc(C(=O)N=C(N)N)cc2c1Oc1c(cccc1C(C)C)CS2(=O)=O` [Example 31, N-(4-Isopropyl-6-methyl-10,10-dioxo-10,11-dihydro-5-oxa-10lambda*6*-thia-dibenzo[a,d]cycloheptene-8-carbonyl)-guanidine, methane sulfonic acid salt]: the IC50 (usually the concentration at which inhibition is half-maximal) amounted to 200 nM. Still for that read-out and setting: the figure for `CCN(CCN1CCCC1)c1cc(Cl)c2c(c1)CS(=O)(=O)c1cc(C(=O)N=C(N)N)cc(C)c1O2` [Example 73, N-{4-Chloro-2-[ethyl-(2-pyrrolidin-1-yl-ethyl)-amino]-6-methyl-10,10-dioxo-10,11-dihydro-5-oxa-10lambda*6*-thia-dibenzo[a,d]cycloheptene-8-carbonyl}-guanidine dimesylate] is 32 nM; for `Cc1cc(C(=O)N=C(N)N)cc2c1Oc1c(Cl)cc(NCCn3ccnc3)cc1CS2(=O)=O` [Example 64, N-[4-Chloro-2-(2-imidazol-1-yl-ethylamino)-6-methyl-10,10-dioxo-10,11-dihydro-5-oxa-10lambda*6*-thia-dibenzo[a,d]cycloheptene-8-carbonyl]-guanidine dimesylate] it is 28 nM. As for `Cc1cc(C(=O)N=C(N)N)cc2c1N(C)c1c(Cl)cccc1C(C)S2(=O)=O` (stereo not drawn) [Example 194, N-(4-Chloro-5,6,11-trimethyl-10,10-dioxo-10,11-dihydro-5H-10lambda*6*-thia-5-aza-dibenzo[a.d]cycloheptene-8-carbonyl)-guanidine, methane sulfonic acid salt], the IC50 came out at 200 nM. On to `Cc1cc2c(cc1C(=O)N=C(N)N)S(=O)(=O)Cc1ccccc1O2` [Example 27, N-(7-Methyl-10,10-dioxo-10,11-dihydro-5-oxa-10lambda*6*-thia-dibenzo[a,d]cycloheptene-8-carbonyl)-guanidine, methane sulfonic acid salt], for which the IC50 worked out at 100 nM. `Cc1cc(C(=O)N=C(N)N)cc2c1Oc1c(Cl)cc(CN)cc1CS2(=O)=O` [Example 198, N-(2-Aminomethyl-4-chloro-6-methyl-10,10-dioxo-10,11-dihydro-5-oxa-10lambda*6*-thia-dibenzo[a.d]cycloheptene-8-carbonyl)-guanidine trimesylate] displayed an IC50 of 30 nM.

`Cc1cc(N)cc2c1Oc1c(Cl)cc(C(=O)N=C(N)N)cc1S(=O)(=O)C2` [Example 48, N-(2-Amino-6-chloro-4-methyl-10,10-dioxo-10,11-dihydro-5-oxa-10lambda*6*-thia-dibenzo[a,d]cycloheptene-8-carbonyl)-guanidine, methane sulfonic acid salt] registered an IC50 of 40 nM.

In turn, `Cc1cc(C(=O)N=C(N)N)cc2c1Oc1c(Cl)cc(N3CCN(Cc4ccccc4)CC3)cc1CS2(=O)=O` [Example 118, N-[2-(4-Benzyl-piperazin-1-yl)-4-chloro-6-methyl-10,10-dioxo-10,11-dihydro-5-oxa-10lambda*6*-thia-dibenzo[a,d]cycloheptene-8-carbonyl]-guanidine dimesylate] showed an IC50 of 100 nM. Still for that read-out and setting: the figure for `Cc1cc2c(cc1C(=O)N=C(N)N)S(=O)(=O)Cc1ccccc1N2` [Example 183, N-(7-Methyl-10,10-dioxo-10,11-dihydro-5H-10lambda*6*-thia-5-aza-dibenzo[a.d]cycloheptene-8-carbonyl)-guanidine, methane sulfonic acid salt] is 100 nM.

Test system in the next data set: not given
Experiment: not given
Details: not given
With `CS(=O)(=O)O.Cc1cc(C(=O)NC(=N)N)cc2c1Oc1c(Cl)cc(S(=O)(=O)N3CCOCC3)cc1CS2(=O)=O` [Example 55, N-[4-chloro-6-methyl-2-(morpholine-4-sulfonyl)-10,10-dioxo-10,11-dihydro-5-oxa-10 lambda*6*-thia-dibenzo[a,d]cycloheptene-8-carbonyl]-guanidine methane sulfonic acid salt], the melting point (usually the temperature, or range, at which the solid turns liquid) fell in the range of 292 to 293 °C. `CS(=O)(=O)O.Cc1cc(C(=O)NC(=N)N)cc2c1Oc1c(Cl)cc(NC(=O)CO)cc1CS2(=O)=O` [Example 136, N-(4-Chloro-8-guanidinocarbonyl-6-methyl-10,10-dioxo-10,11-dihydro-5-oxa-10lambda*6*-thia-dibenzo[a,d]cycloheptene-2-yl)-2-hydroxy-acetamide methane sulfonic acid salt] came in with a melting point of 180 to 182 °C. The compound `COc1ccccc1CNCCNc1cc(Cl)c2c(c1)CS(=O)(=O)c1cc(C(=O)NC(=N)N)cc(C)c1O2.CS(=O)(=O)O.CS(=O)(=O)O` [Example 90, N-{4-Chloro-2-[2-(2-methoxy-benzylamino)-ethylamino]-6-methyl-10,10-dioxo-10,11-dihydro-5-oxa-10lambda*6*-thia-dibenzo[a,d]cycloheptene-8-carbonyl}-guanidine dimesylate] came in with a melting point of 224 to 225 °C.

`CS(=O)(=O)O.CS(=O)(=O)O.Cc1cc(C(=O)NC(=N)N)cc2c1Oc1c(Cl)cc(N(CCN3CCCC3)C(=O)C3CC3)cc1CS2(=O)=O` [Example 76, Cyclopropanecarboxylic acid (4-chloro-8-guanidinocarbonyl-6-methyl-10,10-dioxo-10,11-dihydro-5-oxa-10lambda*6*-thia-dibenzo[a,d]cyclohepten-2-yl)-(2-pyrrolidin-1-yl-ethyl)-amide dimesylate] registered a melting point of 178 to 179 °C. In turn, `CS(=O)(=O)O.CS(=O)(=O)O.CS(=O)(=O)O.Cc1cc(C(=O)NC(=N)N)cc2c1Oc1c(Cl)cc(N(CCN3CCCCC3)C(=O)C3CC3)cc1CS2(=O)=O` [Example 95, Cyclopropanecarboxylic acid (4-chloro-8-guanidinocarbonyl-6-methyl-10,10-dioxo-10,11-dihydro-5-oxa-10lambda*6*-thia-dibenzo[a,d]cycloheptene-2-yl)-(2-piperidin-1-yl-ethyl)-amide trimesylate] displayed a melting point of 276 °C. Still for that read-out and setting: the figure for `CS(=O)(=O)O.CS(=O)(=O)O.CS(=O)(=O)O.Cc1ccc(CNc2cc(Cl)c3c(c2)CS(=O)(=O)c2cc(C(=O)NC(=N)N)cc(C)c2O3)s1` [Example 164, N-{4-Chloro-6-methyl-2-[(5-methyl-thiophen-2-ylmethyl)-amino]-10,10-dioxo-10,11-dihydro-5-oxa-10lambda*6*-thia-dibenzo[a,d]cycloheptene-8-carbonyl}-guanidine trimesylate] is 230 to 232 °C; for `CC(=O)N(CCN(C)C)c1cc(Cl)c2c(c1)CS(=O)(=O)c1cc(C(=O)NC(=N)N)cc(C)c1O2.CS(=O)(=O)O.CS(=O)(=O)O.CS(=O)(=O)O` [Example 100, N-(4-Chloro-8-guanidinocarbonyl-6-methyl-10,10-dioxo-10,11-dihydro-5-oxa-10lambda*6*-thia-dibenzo[a,d]cyclohepten-2-yl)-N-(2-dimethylamino-ethyl)-acetamide trimesylate] it is 128 to 130 °C; for `CS(=O)(=O)O.CS(=O)(=O)O.Cc1cc(C(=O)NC(=N)N)cc2c1Oc1c(N)cccc1CS2(=O)=O` [Example 159, N-[4-Amino-6-methyl-10,10-dioxo-10,11-dihydro-5-oxa-10lambda*6*-thia-dibenzo[a,d]cycloheptene-8-carbonyl)-guanidine dimesylate] it is 255 to 257 °C. Still for that read-out and setting: the figure for `CS(=O)(=O)O.CS(=O)(=O)O.Cc1cc(C(=O)NC(=N)N)cc2c1Oc1c(Cl)cc(NC(=O)CN3CCCC3)cc1CS2(=O)=O` [Example 147, N-(4-Chloro-8-guanidinocarbonyl-6-methyl-10,10-dioxo-10,11-dihydro-5-oxa-10lambda*6*-thia-dibenzo[a,d]-cyclohepten-2-yl)-2-pyrrolidine-1-yl-acetamide dimesylate] is 190 to 192 °C. The same measure, in the same setting: the figure for `CS(=O)(=O)O.CS(=O)(=O)O.CS(=O)(=O)O.CS(=O)(=O)O.Cc1cc(C(=O)NC(=N)N)cc2c1Oc1c(Cl)cc(N3CCN(CCN4CCNCC4)CC3)cc1CS2(=O)=O` [Example 124, N-{4-Chloro-6-methyl-10,10-dioxo-2-[4-(2-piperazin-1-yl-ethyl)-piperazin-1-yl)-10,11-dihydro-5-oxa-10lambda*6*-thia-dibenzo[a,d]cycloheptene-8-carbonyl}-guanidine tetramesylate] is 182 to 184 °C; for `CS(=O)(=O)O.CS(=O)(=O)O.Cc1cc(C(=O)NC(=N)N)cc2c1Oc1c(Cl)cc(N3CCN(CCO)CC3)cc1CS2(=O)=O` [Example 197, N-{4-Chloro-2-[4-(2-hydroxy-ethyl)-piperazin-1-yl]-6-methyl-10,10-dioxo-10,11-dihydro-5-oxa-10lambda*6*-thia-dibenzo[a,d]cycloheptene-8-carbonyl}-guanidine dimesylate] it is 185 to 187 °C; for `CCN1CCN(c2cc(Cl)c3c(c2)CS(=O)(=O)c2cc(C(=O)NC(=N)N)cc(C)c2O3)CC1.CS(=O)(=O)O.CS(=O)(=O)O` [Example 116, N-[4-Chloro-2-(4-ethyl-piperazin-1-yl)-6-methyl-10,10-dioxo-10,11-dihydro-5-oxa-10lambda*6*-thia-dibenzo[a,d]cycloheptene-8-carbonyl]-guanidine dimesylate] it is 255 to 257 °C.
